The text below walks through data of the Kinase Knowledgebase extract (Sharma et al. 2016).

Molecules are shown by their SMILES. pIC50: −log10 of the molar value.

The target of this experiment is PIK3CD (Human) (UniProt O00329). The experiment is described as follows: Enzyme Assay.
Sequence of PIK3CD (Human) (O00329 whole entry, looked up): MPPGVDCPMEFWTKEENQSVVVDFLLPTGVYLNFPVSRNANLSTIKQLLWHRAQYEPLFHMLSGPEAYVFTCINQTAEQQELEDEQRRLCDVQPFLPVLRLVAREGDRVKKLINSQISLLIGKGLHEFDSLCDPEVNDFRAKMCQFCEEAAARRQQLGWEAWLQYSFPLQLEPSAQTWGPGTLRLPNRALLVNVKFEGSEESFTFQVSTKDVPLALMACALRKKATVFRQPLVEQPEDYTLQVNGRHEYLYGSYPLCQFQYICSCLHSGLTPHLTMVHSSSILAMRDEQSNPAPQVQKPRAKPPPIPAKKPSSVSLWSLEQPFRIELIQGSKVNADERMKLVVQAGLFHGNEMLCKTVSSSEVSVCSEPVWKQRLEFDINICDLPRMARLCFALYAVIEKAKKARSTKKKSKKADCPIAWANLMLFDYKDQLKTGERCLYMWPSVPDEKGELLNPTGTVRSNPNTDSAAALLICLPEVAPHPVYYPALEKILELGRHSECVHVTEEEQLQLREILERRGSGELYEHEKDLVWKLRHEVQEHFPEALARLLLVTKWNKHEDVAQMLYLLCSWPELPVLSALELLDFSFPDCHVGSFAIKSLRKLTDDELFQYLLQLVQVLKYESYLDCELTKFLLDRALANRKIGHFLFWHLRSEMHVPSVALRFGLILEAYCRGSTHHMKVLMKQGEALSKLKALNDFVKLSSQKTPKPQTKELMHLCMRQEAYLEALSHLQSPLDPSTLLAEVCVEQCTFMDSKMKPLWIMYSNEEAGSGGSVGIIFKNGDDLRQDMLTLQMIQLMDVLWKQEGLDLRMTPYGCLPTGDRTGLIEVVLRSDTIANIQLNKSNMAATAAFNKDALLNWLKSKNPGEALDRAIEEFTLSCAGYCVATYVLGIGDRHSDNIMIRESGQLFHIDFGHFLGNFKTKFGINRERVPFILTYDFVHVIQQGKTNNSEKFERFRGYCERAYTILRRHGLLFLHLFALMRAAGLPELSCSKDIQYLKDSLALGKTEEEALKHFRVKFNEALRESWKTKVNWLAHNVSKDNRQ
As a reminder, the pIC50 is the IC50 on a negative log10 scale, so that one unit is a factor of ten. The low end stands for a large IC50, the high end for a small IC50. Take `CCC(=O)N1CC[C@H](Oc2ncnc3c2nc(-c2cnc(OC)c(NS(C)(=O)=O)c2)n3C)C1`: the pIC50 was 8.70.
Under `CCn1ncc(-c2nc3c(O[C@H]4CCN(C(=O)c5nnc(N(C)C)o5)C4)ncnc3n2C)c1C` stands 7.17; under `CCn1ncc(-c2nc3c(S[C@H]4CCN(c5ccncn5)C4)ncnc3n2C)c1C`, 8.22; under `CCn1ncc(-c2nc3c(O[C@H]4CCN(c5nccn6cnnc56)C4)ncnc3n2C)c1C`, 7.52.
Under `CCn1c(-c2cnc(C)nc2)nc2c(O[C@@H]3CN(C(=O)C4CC4)C[C@H]3OC)ncnc21` stands 7.39.
As to `CCn1ncc(-c2nc3c(O[C@H]4CCN(C(=O)c5ccncc5)C4)ncnc3n2C)c1C`, the pIC50 is 7.89.
Under `CCn1ncc(-c2nc3c(O[C@H]4CCN(C(=O)c5cn(C)nn5)C4)ncnc3n2C)c1C` stands 8.28.
`CCOC(=O)N1CC[C@H](Oc2ncnc3c2nc(-c2cnc(C)nc2)n3CC)C1` had a pIC50 of 7.74.
`CCC(=O)N1CC[C@H](Oc2ncnc3c2nc(C(F)(F)F)n3CC)C1` had a pIC50 of 7.00.
Under `CCn1c(-c2cnc(C)nc2)nc2c(O[C@H]3CCN(C(=O)C4[C@@H](C)[C@H]4C)C3)ncnc21` (stereo not given in full) stands 7.92.
In turn, `CCn1c(N2CCC(C)C2)nc2c(O[C@H]3CCN(C(=O)OC(C)(C)C)C3)ncnc21` (stereo not given in full) had a pIC50 of 6.24.
Turning to `Cn1c(-c2ccc3[nH]ncc3c2)nc2c(O[C@H]3CCN(C(=O)OC(C)(C)C)C3)ncnc21`, the pIC50 is 7.46.
`CCn1ncc(-c2nc3c(O[C@H]4CCN(C(=O)c5nnc(C)o5)C4)ncnc3n2C)c1C` gave a pIC50 of 7.51.
Under `CCn1c(-c2cnc(C)nc2)nc2c(O[C@@H]3CN(C(=O)OC(C)(C)C)CC3(F)F)ncnc21.CCn1c(-c2cnc(C)nc2)nc2c(O[C@H]3CN(C(=O)OC(C)(C)C)CC3(F)F)ncnc21` stands 7.66; under `CCn1c(N(C)CC(C)C)nc2c(O[C@H]3CCN(C(=O)OC(C)(C)C)C3)ncnc21`, 6.82.
In turn, `Cn1c(-c2ccc(N3CCOCC3)nc2)nc2c(O[C@H]3CCN(C(=O)OC(C)(C)C)C3)ncnc21` gave a pIC50 of 5.36.
`CCn1c(-c2cnc(C)nc2)nc2c(OC3CN(C(=O)C4CC4)CC3C)ncnc21` (stereo not given) gave a pIC50 of 8.54.
As for `CCn1c(-c2cnc(C)nc2)nc2c(O[C@H]3CCN(c4ccc5cnoc5c4)C3)ncnc21`, the figure is 7.96.
Under `CCn1c(-c2cnc(C)nc2)nc2c(O[C@H]3CCCN(c4ccccn4)C3)ncnc21` stands 7.14; under `CCn1c(-c2cnc(OC)c(C)c2)nc2c(O[C@H]3CCN(C(=O)OC(C)(C)C)C3)ncnc21`, 9.15; under `CCn1ncc(-c2nc3c(O[C@H]4CCN(C(=O)c5ccnc(C)c5)C4)ncnc3n2C)c1C`, 7.60.
As for `CCn1ncc(-c2nc3c(O[C@H]4CCN(C(=O)c5nc(C(C)(C)O)no5)C4)ncnc3n2C)c1C`, the figure is 6.96; as for `CCn1ncc(-c2nc3c(O[C@H]4CCN(C(=O)c5noc(C(C)(C)O)n5)C4)ncnc3n2C)c1C`, 6.92; as for `CCC(=O)N1CC[C@H](Sc2ncnc3c2nc(-c2cnn(CC)c2C)n3C)C1`, 7.96.
Consider `CCn1ncc(-c2nc3c(O[C@H]4CCN(C(=O)C5CCCO5)C4)ncnc3n2C)c1C` (stereo not given in full), for which the pIC50 was 7.92.
Under `CCn1ncc(-c2nc3c(O[C@H]4CCN(C(=O)c5cccn5C)C4)ncnc3n2C)c1C` stands 8.06; under `CCCN1CC[C@H](Oc2ncnc3c2nc(-c2cnn(CC)c2C)n3C)C1`, 6.42; under `CCn1c(-c2cnc(C)nc2C)nc2c(O[C@H]3CCN(C(=O)C4CC4)C3)ncnc21`, 7.36.
As for `CCn1c(-c2cnc(C)nc2)nc2c(O[C@H]3CCN(c4cc(C)ccn4)C3)ncnc21`, the figure is 8.39; as for `CCc1oncc1C(=O)N1CC[C@H](Oc2ncnc3c2nc(-c2cnn(CC)c2C)n3C)C1`, 7.57; as for `CCn1ncc(C(=O)N2CC[C@H](Oc3ncnc4c3nc(-c3cnn(CC)c3C)n4C)C2)c1C`, 7.54.
As for `CCn1ncc(-c2nc3c(O[C@H]4CCN(C(=O)c5cc6n(n5)CCC6)C4)ncnc3n2C)c1C`, the figure is 7.12.
Regarding `CCn1ncc(-c2nc3c(O[C@H]4CCN(C(C)c5ccccc5)C4)ncnc3n2C)c1C` (stereo not given in full), the pIC50 is 6.57.
As for `CCn1c(-c2cnc(C)nc2)nc2c(O[C@H]3CCN(S(=O)(=O)CC)C3)ncnc21`, the figure is 6.77.
`CCC(=O)N1CC[C@H](Oc2ncnc3c2nc(-c2cc(F)cc(NS(C)(=O)=O)c2)n3C)C1` had a pIC50 of 8.00.
`CCn1c(-c2cnc(OC)c(NS(C)(=O)=O)c2)nc2c(O[C@H]3CCN(C(=O)C4CC4)C3)ncnc21`: the pIC50 is over 9.00.
With `CCn1c(-c2cnc(C)nc2)nc2c(O[C@H]3CCN(c4cncnc4)C3)ncnc21`, the pIC50 is 7.33.
`CCc1nc(C)c(C(=O)N2CC[C@H](Oc3ncnc4c3nc(-c3cnn(CC)c3C)n4C)C2)o1`: the pIC50 was 7.92.
Under `CCn1c(-c2cnc(N)c(C(F)(F)F)c2)nc2c(O[C@H]3CCN(C(=O)C4CC4)C3)ncnc21` stands 8.96; under `CCn1c(-c2cnc(C)nc2)nc2c(O[C@H]3CCN(C(=O)C4(N)CCC4)C3)ncnc21`, 7.30.
Under `CCn1c(-c2cnc(OC)c(F)c2)nc2c(O[C@H]3CCN(C(=O)C(C)C)C3)ncnc21` stands over 9.00; under `CCC(=O)N1CC[C@H](Oc2ncnc3c2nc(-c2cnn4c2CCC4)n3C)C1`, 7.64.
As for `CCn1ncc(-c2nc3c(S[C@H]4CCN(C(=O)C5CCOCC5)C4)ncnc3n2C)c1C`, the figure is 7.74; as for `CCn1ncc(-c2nc3c(O[C@H]4CCN(C(=O)c5ncoc5C)C4)ncnc3n2C)c1C`, 8.14; as for `CC(=O)Nc1ccc(-c2nc3c(O[C@H]4CCN(C(=O)OC(C)(C)C)C4)ncnc3n2C)cc1`, 6.85.
Regarding `Cn1c(-c2ccc(-n3ccnc3)cc2)nc2c(O[C@H]3CCN(C(=O)OC(C)(C)C)C3)ncnc21`, the pIC50 is 6.48.
As for `Cn1c(-c2cn[nH]c2)nc2c(O[C@H]3CCN(C(=O)OC(C)(C)C)C3)ncnc21`, the figure is 7.55; as for `CCn1ncc(-c2nc3c(O[C@H]4CCCN(C(=O)OC(C)(C)C)C4)ncnc3n2C)c1C`, 7.03; as for `CCn1c(-c2ccc(C(F)(F)F)nc2)nc2c(O[C@H]3CCN(C(=O)N4CC(OC)C4)C3)ncnc21`, over 9.00.
Under `CCn1c(-c2cnc(C(C)(C)C)s2)nc2c(O[C@H]3CCN(C(=O)OC(C)(C)C)C3)ncnc21` stands 9.30; under `CCn1ncc(-c2nc3c(O[C@H]4CCN(C(=O)c5ccccn5)C4)ncnc3n2C)c1C`, 7.57.
As for `CCn1c(-c2cnc(C(F)(F)F)nc2)nc2c(O[C@H]3CCN(C(=O)C4CC4)C3)ncnc21`, the figure is 7.74.
In the case of `CCn1c(-c2ccc(OC)c(F)c2)nc2c(O[C@H]3CCN(C(=O)C4CC4)C3)ncnc21`, the pIC50 is 8.66.
As for `CCn1ncc(-c2nc3c(O[C@H]4CCN(C(=O)c5cc(C(C)(C)C)nn5C)C4)ncnc3n2C)c1C`, the figure is 6.82; as for `Cn1c(-c2cnn3cccnc23)nc2c(O[C@H]3CCN(C(=O)OC(C)(C)C)C3)ncnc21`, 6.68; as for `CCn1c(-c2cnc(C)nc2)nc2c(O[C@H]3CCN(c4ccccc4C)C3)ncnc21`, 7.07.
The compound `CCn1ncc(-c2nc3c(O[C@H]4CCN(C(=O)c5ccc(C)nc5)C4)ncnc3n2C)c1C` had a pIC50 of 7.15.
In turn, `CCn1ncc(-c2nc3c(O[C@H]4CCN(S(=O)(=O)c5ccccc5)C4)ncnc3n2C)c1C` gave a negative-log IC50 (pIC50) of 6.44.
Regarding `Cc1cc2cccc(-c3nc4c(O[C@H]5CCN(C(=O)OC(C)(C)C)C5)ncnc4n3C)c2[nH]1`, the pIC50 was 6.18.
Compound `CCn1c(-c2cnc(C)nc2)nc2c(O[C@@H]3CN(C(=O)OC(C)(C)C)C[C@H]3F)ncnc21.CCn1c(-c2cnc(C)nc2)nc2c(O[C@H]3CN(C(=O)OC(C)(C)C)C[C@@H]3F)ncnc21` had a pIC50 of 8.48.
Under `CCn1c(-c2cnn(-c3ccccc3)c2C)nc2c(O[C@H]3CCN(C(=O)C4CC4)C3)ncnc21` stands over 9.00.
In turn, `CCn1c(-c2cnc(C)nc2)nc2c(O[C@H]3CCN(c4ccccn4)C3)ncnc21` had a pIC50 of 8.77.
As for `CCn1ncc(-c2nc3c(O[C@H]4CCN(C(=O)c5cc6ncccc6[nH]5)C4)ncnc3n2C)c1C`, the figure is 5.72.
Under `CCn1ncc(-c2nc3c(O[C@@H]4CC[C@H](n5c(=O)[nH]c6ncccc65)C4)ncnc3n2C)c1C` stands 6.92; under `CCn1c(-c2cnc(C)nc2)nc2c(O[C@H]3CCN(C(=O)C4CCOCC4)C3)ncnc21`, 8.07.
As for `CCn1c(-c2cnc(OC)c(Cl)c2)nc2c(O[C@H]3CCN(C(=O)C4CC4)C3)ncnc21`, the figure is over 9.00; as for `CCn1ncc(-c2nc3c(O[C@H]4CCN(S(=O)(=O)c5ccc(-c6ccccc6)cc5)C4)ncnc3n2C)c1C`, 5.34.
`CCn1ncc(-c2nc3c(O[C@H]4CCN(C(=O)OC(C)(C)C)C4)ncnc3n2C)c1C` gave a pIC50 of 8.37.
Under `CCn1c(-c2cnc(C)nc2)nc2c(O[C@H]3CCN(C(=O)C4CC4)C3)ncnc21` stands 8.55; under `CCn1ncc(-c2nc3c(S[C@H]4CCN(C(=O)c5coc(C)n5)C4)ncnc3n2C)c1C`, 7.60.
In the case of `CCC(=O)N1CC[C@H](Oc2ncnc3[nH]c(-c4cnn(CC)c4C)nc23)C1`, the pIC50 is 7.62.
Under `CCn1ncc(-c2nc3c(O[C@H]4CCN(C(=O)c5cc(C)nn5C)C4)ncnc3n2C)c1C` stands 7.72; under `CCn1c(-c2cnn3c2CCCC3)nc2c(O[C@H]3CCN(C(=O)C(C)C)C3)ncnc21`, over 9.00; under `CCC(=O)N1CC[C@H](Oc2ncnc3c2nc(-c2ccc(C)nc2)n3C)C1`, 7.18.
`CCn1c(-c2cnc(C)nc2)nc2c(O[C@H]3CCN(C(=O)N4CCC(CO)C4)C3)ncnc21` (stereo not given in full) showed a pIC50 of 8.02.
Under `CCn1c(-c2ccc(OC(F)F)nc2)nc2c(O[C@@H]3CCN(C(=O)C4CC4)C3)ncnc21` stands 7.85; under `CCn1c(N(C)C(C)C)nc2c(O[C@H]3CCN(C(=O)OC(C)(C)C)C3)ncnc21`, 6.24.
The compound `CCC(=O)N1CC[C@H](Oc2ncnc3c2nc(-c2cnn(-c4ccccc4)c2C)n3C)C1` had a pIC50 of 8.44.
As for `CCn1ncc(-c2nc3c(O[C@H]4CCN(C(=O)c5ocnc5C)C4)ncnc3n2C)c1C`, the figure is 7.82.
In the case of `CCn1ncc(-c2nc3c(O[C@H]4CCN(C(=O)c5cc(C(C)C)n[nH]5)C4)ncnc3n2C)c1C`, the pIC50 is 6.96.
